{"source": "ChEMBL document CHEMBL3045325", "about": "“Comparative Studies of Elicitors That Induce Phytoalexin in Oats” (1996)", "key": {"Avena sativa [1]": {"test_system": "Avena sativa", "experiment": "Induction of electrolyte leakage in Avena sativa Shokan-1 leaf lower epidermis at 0.1 mg/ml after 24 hr by conductivity test", "format": "functional, organism-based"}, "Avena sativa [2]": {"test_system": "Avena sativa", "experiment": "Induction of phytoalexin secretion in Avena sativa Shokan-1 leaf lower epidermis assessed as amount of avenanthramide A at 0.1 mg/ml by HPLC analysis relative to control", "format": "functional"}, "Avena sativa [3]": {"test_system": "Avena sativa", "experiment": "Induction of phytoalexin avenanthramide A secretion in Avena sativa Shokan-1 leaf lower epidermis at 0.1 mg/ml after 24 hr in presence of CaCl2", "format": "functional, organism-based"}, "Avena sativa [4]": {"test_system": "Avena sativa", "experiment": "Induction of phytoalexin secretion in Avena sativa Pc-2 leaf lower epidermis assessed as amount of avenanthramide D at 0.1 mg/ml by HPLC analysis relative to control", "format": "functional, organism-based"}, "Avena sativa [5]": {"test_system": "Avena sativa", "experiment": "Induction of phytoalexin secretion in Avena sativa Pc-2 leaf lower epidermis assessed as amount of avenanthramide G at 0.1 mg/ml by HPLC analysis relative to control", "format": "functional, organism-based"}, "Avena sativa [6]": {"test_system": "Avena sativa", "experiment": "Induction of phytoalexin secretion in Avena sativa Pc-2 leaf lower epidermis assessed as amount of avenanthramide L at 0.1 mg/ml by HPLC analysis relative to control", "format": "functional, organism-based"}, "Avena sativa [7]": {"test_system": "Avena sativa", "experiment": "Induction of phytoalexin secretion in Avena sativa Pc-2 leaf lower epidermis assessed as amount of avenanthramide B at 0.1 mg/ml by HPLC analysis relative to control", "format": "functional, organism-based"}, "Avena sativa [8]": {"test_system": "Avena sativa", "experiment": "Induction of phytoalexin secretion in Avena sativa Pc-2 leaf lower epidermis assessed as amount of avenanthramide A at 0.1 mg/ml by HPLC analysis relative to control", "format": "functional, organism-based"}, "Avena sativa [9]": {"test_system": "Avena sativa", "experiment": "Induction of phytoalexin secretion in Avena sativa Shokan-1 leaf lower epidermis assessed as amount of avenanthramide G at 0.1 mg/ml by HPLC analysis relative to control", "format": "functional"}, "Avena sativa [10]": {"test_system": "Avena sativa", "experiment": "Induction of phytoalexin secretion in Avena sativa Shokan-1 leaf lower epidermis assessed as amount of avenanthramide L at 0.1 mg/ml by HPLC analysis relative to control", "format": "functional"}, "Avena sativa [11]": {"test_system": "Avena sativa", "experiment": "Induction of phytoalexin secretion in Avena sativa Shokan-1 leaf lower epidermis assessed as amount of avenanthramide B at 0.1 mg/ml by HPLC analysis relative to control", "format": "functional"}, "Avena sativa [12]": {"test_system": "Avena sativa", "experiment": "Induction of phytoalexin secretion in Avena sativa Shokan-1 leaf lower epidermis assessed as amount of avenanthramide D at 0.1 mg/ml by HPLC analysis relative to control", "format": "functional"}, "Avena sativa [13]": {"test_system": "Avena sativa", "experiment": "Induction of phytoalexin avenanthramide A secretion in Avena sativa Shokan-1 leaf lower epidermis at 1 mg/ml after 24 hr in presence of CaCl2", "format": "functional, organism-based"}, "Avena sativa [14]": {"test_system": "Avena sativa", "experiment": "Induction of electrolyte leakage in Avena sativa Shokan-1 leaf lower epidermis at 1 mg/ml after 24 hr by conductivity test", "format": "functional, organism-based"}, "Avena sativa [15]": {"test_system": "Avena sativa", "experiment": "Induction of phytoalexin avenanthramide A secretion in Avena sativa Shokan-1 leaf lower epidermis at 1 mg/ml upto 24 hr", "format": "functional, organism-based"}, "Avena sativa [16]": {"test_system": "Avena sativa", "experiment": "Induction of phytoalexin avenanthramide A secretion in Avena sativa Shokan-1 leaf lower epidermis at 1 mg/ml after 24 hr", "format": "functional, organism-based"}, "Avena sativa [17]": {"test_system": "Avena sativa", "experiment": "Induction of phytoalexin secretion in Avena sativa Shokan-1 leaf lower epidermis assessed as amount of avenanthramide A at 1 mg/ml by HPLC analysis relative to control", "format": "functional"}, "Avena sativa [18]": {"test_system": "Avena sativa", "experiment": "Induction of phytoalexin secretion in Avena sativa Pc-2 leaf lower epidermis assessed as amount of avenanthramide D at 1 mg/ml by HPLC analysis relative to control", "format": "functional, organism-based"}, "Avena sativa [19]": {"test_system": "Avena sativa", "experiment": "Induction of phytoalexin secretion in Avena sativa Pc-2 leaf lower epidermis assessed as amount of avenanthramide G at 1 mg/ml by HPLC analysis relative to control", "format": "functional, organism-based"}, "Avena sativa [20]": {"test_system": "Avena sativa", "experiment": "Induction of phytoalexin secretion in Avena sativa Pc-2 leaf lower epidermis assessed as amount of avenanthramide L at 1 mg/ml by HPLC analysis relative to control", "format": "functional, organism-based"}, "Avena sativa [21]": {"test_system": "Avena sativa", "experiment": "Induction of phytoalexin secretion in Avena sativa Pc-2 leaf lower epidermis assessed as amount of avenanthramide B at 1 mg/ml by HPLC analysis relative to control", "format": "functional, organism-based"}, "Avena sativa [22]": {"test_system": "Avena sativa", "experiment": "Induction of phytoalexin secretion in Avena sativa Pc-2 leaf lower epidermis assessed as amount of avenanthramide A at 1 mg/ml by HPLC analysis relative to control", "format": "functional, organism-based"}, "Avena sativa [23]": {"test_system": "Avena sativa", "experiment": "Induction of phytoalexin secretion in Avena sativa Shokan-1 leaf lower epidermis assessed as amount of avenanthramide G at 1 mg/ml by HPLC analysis relative to control", "format": "functional"}, "Avena sativa [24]": {"test_system": "Avena sativa", "experiment": "Induction of phytoalexin secretion in Avena sativa Shokan-1 leaf lower epidermis assessed as amount of avenanthramide L at 1 mg/ml by HPLC analysis relative to control", "format": "functional"}, "Avena sativa [25]": {"test_system": "Avena sativa", "experiment": "Induction of phytoalexin secretion in Avena sativa Shokan-1 leaf lower epidermis assessed as amount of avenanthramide B at 1 mg/ml by HPLC analysis relative to control", "format": "functional"}, "Avena sativa [26]": {"test_system": "Avena sativa", "experiment": "Induction of phytoalexin secretion in Avena sativa Shokan-1 leaf lower epidermis assessed as amount of avenanthramide D at 1 mg/ml by HPLC analysis relative to control", "format": "functional"}, "Avena sativa [27]": {"test_system": "Avena sativa", "experiment": "Induction of phytoalexin avenanthramide A secretion in Avena sativa Pc-2 leaf lower epidermis at 1 ng/ml after 24 hr in presence of CaCl2", "format": "functional, organism-based"}, "Avena sativa [28]": {"test_system": "Avena sativa", "experiment": "Induction of electrolyte leakage in Avena sativa Pc-2 leaf lower epidermis at 1 ng/ml after 24 hr by conductivity test", "format": "functional, organism-based"}, "Avena sativa [29]": {"test_system": "Avena sativa", "experiment": "Induction of phytoalexin avenanthramide A secretion in Avena sativa Pc-2 leaf lower epidermis at 100 ng/ml after 24 hr", "format": "functional, organism-based"}, "Avena sativa [30]": {"test_system": "Avena sativa", "experiment": "Induction of electrolyte leakage in Avena sativa Pc-2 leaf lower epidermis at 1 ng/ml after 24 hr in presence of CaCl2", "format": "functional, organism-based"}, "Avena sativa [31]": {"test_system": "Avena sativa", "experiment": "Induction of phytoalexin avenanthramide A secretion in Avena sativa Pc-2 leaf lower epidermis at 5 mg/ml after 24 hr", "format": "functional, organism-based"}, "Avena sativa [32]": {"test_system": "Avena sativa", "experiment": "Induction of phytoalexin secretion in Avena sativa Pc-2 leaf lower epidermis assessed as amount of avenanthramide D at 1 ng/ml by HPLC analysis relative to control", "format": "functional"}, "Avena sativa [33]": {"test_system": "Avena sativa", "experiment": "Induction of phytoalexin secretion in Avena sativa Pc-2 leaf lower epidermis assessed as amount of avenanthramide L at 1 ng/ml by HPLC analysis relative to control", "format": "functional"}, "Avena sativa [34]": {"test_system": "Avena sativa", "experiment": "Induction of phytoalexin secretion in Avena sativa Pc-2 leaf lower epidermis assessed as amount of avenanthramide A at 1 ng/ml by HPLC analysis relative to control", "format": "functional"}, "Avena sativa [35]": {"test_system": "Avena sativa", "experiment": "Induction of phytoalexin secretion in Avena sativa Pc-2 leaf lower epidermis assessed as amount of avenanthramide G at 1 ng/ml by HPLC analysis relative to control", "format": "functional"}}, "note": "Calls of active or inactive are those of the source. No cut-off for these calls is given here.", "data": [{"smiles": "N[C@H]1[C@H](O[C@H]2[C@H](O)[C@@H](N)[C@H](O[C@H]3[C@H](O)[C@@H](N)[C@H](O[C@H]4[C@H](O)[C@@H](N)[C@H](O[C@H]5[C@H](O)[C@@H](N)C(O)O[C@@H]5CO)O[C@@H]4CO)O[C@@H]3CO)O[C@@H]2CO)O[C@H](CO)[C@@H](O)[C@@H]1O", "note": "(stereo not given in full) [CHITOPENTAOSE]", "values": [{"measurement": "Activity", "setting": "Avena sativa [1]", "value": "Active"}, {"measurement": "fold change (FC)", "setting": "Avena sativa [2]", "value": 100}, {"measurement": "Activity", "setting": "Avena sativa [3]", "value": "inactive"}, {"measurement": "Activity", "setting": "Avena sativa [4]", "value": "inactive"}, {"measurement": "Activity", "setting": "Avena sativa [5]", "value": "inactive"}, {"measurement": "Activity", "setting": "Avena sativa [6]", "value": "inactive"}, {"measurement": "Activity", "setting": "Avena sativa [7]", "value": "inactive"}, {"measurement": "Activity", "setting": "Avena sativa [8]", "value": "inactive"}, {"measurement": "fold change (FC)", "setting": "Avena sativa [9]", "value": 13}, {"measurement": "fold change (FC)", "setting": "Avena sativa [10]", "value": 1.4}, {"measurement": "fold change (FC)", "setting": "Avena sativa [11]", "value": 3.4}, {"measurement": "fold change (FC)", "setting": "Avena sativa [12]", "value": 10.7}]}, {"smiles": "CC(=O)N[C@H]1[C@H](O[C@H]2[C@H](O)[C@@H](NC(C)=O)[C@H](O[C@H]3[C@H](O)[C@@H](NC(C)=O)C(O)O[C@@H]3CO)O[C@@H]2CO)O[C@H](CO)[C@@H](O[C@@H]2O[C@H](CO)[C@@H](O[C@@H]3O[C@H](CO)[C@@H](O)[C@H](O)[C@H]3NC(C)=O)[C@H](O)[C@H]2NC(C)=O)[C@@H]1O", "note": "(stereo not given in full) [N-ACETYLCHITOPENTAOSE]", "values": [{"measurement": "Activity", "setting": "Avena sativa [13]", "value": "inactive"}, {"measurement": "Activity", "setting": "Avena sativa [14]", "value": "inactive"}, {"measurement": "Activity", "setting": "Avena sativa [15]", "value": "Active"}, {"measurement": "Activity", "setting": "Avena sativa [16]", "value": "inactive"}, {"measurement": "fold change (FC)", "setting": "Avena sativa [17]", "value": 100}, {"measurement": "Activity", "setting": "Avena sativa [18]", "value": "inactive"}, {"measurement": "Activity", "setting": "Avena sativa [19]", "value": "inactive"}, {"measurement": "Activity", "setting": "Avena sativa [20]", "value": "inactive"}, {"measurement": "Activity", "setting": "Avena sativa [21]", "value": "inactive"}, {"measurement": "Activity", "setting": "Avena sativa [22]", "value": "inactive"}, {"measurement": "fold change (FC)", "setting": "Avena sativa [23]", "value": 2.8}, {"measurement": "fold change (FC)", "setting": "Avena sativa [24]", "value": 20.4}, {"measurement": "fold change (FC)", "setting": "Avena sativa [25]", "value": 26}, {"measurement": "fold change (FC)", "setting": "Avena sativa [26]", "value": 1.9}]}, {"smiles": "CC(C)C1OC2=C(CC(C(=O)O)NC(=O)/C(=C/Cl)NC(=O)C1NC(=O)C(NC(=O)C(CC(C)C(Cl)Cl)NC(=O)C(O)O)C(O)CCCN)C(=O)CC2", "note": "(stereo not given) [VICTORIN D]", "values": [{"measurement": "Activity", "setting": "Avena sativa [27]", "value": "inactive"}, {"measurement": "Activity", "setting": "Avena sativa [28]", "value": "Active"}, {"measurement": "Activity", "setting": "Avena sativa [29]", "value": "Active"}, {"measurement": "Activity", "setting": "Avena sativa [30]", "value": "inactive"}, {"measurement": "Activity", "setting": "Avena sativa [31]", "value": "inactive"}, {"measurement": "fold change (FC)", "setting": "Avena sativa [32]", "value": 38.4}, {"measurement": "fold change (FC)", "setting": "Avena sativa [33]", "value": 3}, {"measurement": "fold change (FC)", "setting": "Avena sativa [34]", "value": 100}, {"measurement": "fold change (FC)", "setting": "Avena sativa [35]", "value": 84.6}]}]}
